According to US20260083701A1, “COMPOSITIONS, FORMULATIONS, AND METHODS FOR TREATMENT OF INFLAMMATORY CONDITIONS” (Oddity Labs, LLC, priority 2023, published 2026):

Columns and labels:
IL-4 receptor signaling = assay: IL-4 signaling inhibition in HEK-Blue IL-4/IL-13 cells; assay type: cell-based, human; conditions: HEK-Blue IL-4/IL-13 cells stimulated with 1.25 ng/mL IL-4, co-culture with varying concentrations for 24 hours
Experimental: HEK-Blue IL-4/IL-13 cells are used to evaluate IL-4/IL-4R-alpha binding. HEK-Blue IL-4/IL-13 have been engineered to produce secreted alkaline phosphatase (SEAP) when exposed to IL-4 or IL-13 and have been previously used to identify IL-4 and IL-4R inhibitors. Compounds are tested with these cells at various dosages to evaluate dose dependent changes in IL-4/IL-4R-alpha binding inhibition. Full EC50 curves are generated for Tier1 compounds.
In the experiment, engineered HEK-Blue™ IL-4/IL-13 cells were stimulated with a dose of 1.25 ng/mL of IL-4 and then subjected to co-culture with varying concentrations of the compounds for a period of 24 hours. […] The provided data represent the mean±standard deviation of six technical replicates carried out across two experimental replicates.

IL-4 = assay: Functional Th2-blocking activity: IL-4 expression in primary human Th2 cells (intracellular flow cytometry); assay type: cell-based; conditions: primary human CD4+ Th2 cells; for % Normalized Reduction of Cytokine Expression From Baseline in CD4+ T Cells IL-4: normalized against vehicle control (water), 3 days co-culture, PMA/ionomycin 6 hours; for Expression of Cytokine following Stimulation (% X Positive among CD4+ T cells) IL-4: 3 days co-culture with compound, PMA/ionomycin stimulation 6 hours
Text: (§1) To produce T helper 2 (Th2) cells, peripheral blood mononuclear cells (PBMCs) were harvested from healthy donor leukopaks using Ficoll gradients. Naive CD4+ T cells were further isolated, then activated using TransAct or Dynabeads (depending on the donor). CD4+ T cells were activated for two days in the presence of low dose IL-2 (30 IU/mL) in X-VIVO-15 media containing 5% human AB serum (activation cycle). On the second day, the media was exchanged and supplemented with interleukin 4 (IL-4) (20 ng/mL), anti-IFN-gamma antibody (1 μg/mL), and interleukin 2 (IL-2) (rest cycle). The cells were cultured for an additional five days then evaluated for Prostaglandin D2 receptor 2 (DP2 or CRTH2) expression and IL-4 and interleukin 13 (IL-13) expression following phorbol myristate acetate (PMA)/ionomycin stimulation. If the expression of CRTH2 was >50%, the cells were frozen and used in Th2 IL-4/IL-13 bioactivity assays. If the expression of CRTH2 <50%, then the cells were restimulated using TransAct (or Dynabeads) and maintained on similar cycles of activation (2 days) and rest (5 days), until the expression of CRTH2 exceeded 50%. Typically, no more than 4 cycles are needed before the Th2 cells may be harvested and frozen.
(§2) For testing the ability of a compound or salt of the present disclosure to reduce the expression of IL-4 and IL-13 was tested in primary human Th2 cells, the abovementioned cells were thawed, then cultured for one day in IL-2 containing media. The Th2 cells were treated with compounds added at varying concentrations for three days, after which, the cells were washed, and stimulated with PMA/ionomycin for 6 hrs prior to readabout via intracellular flow cytometry.
(§3) The ability of a compound or salt of the present disclosure to reduce the expression of IL-4 and IL-13 was tested in primary human Th2 cells. Naive, primary human CD4+ T cells were isolated from healthy donors and differentiated into Th2 cells using a combination of IL-4 cytokine and anti-IFN-gamma antibody, based on a modified protocol from Scott et al (Activation of Th2 cells downregulates CRTh2 through an NFAT1 mediated mechanism. PLoS One. 2018 Jul. 3; 13(7):e0199156). Th2 cells were CRTH2+ and expressed IL-4 and IL-13 following PMA/ionomycin stimulation. Prior to PMA/ionomycin stimulation, Th2 cells were co-cultured with a compound or salt of the present disclosure for 3 days and then stimulated for 6 hours. Intracellular flow cytometry was performed to investigate the expression of IL-4 and IL-13 among stimulated CD4+ Th2 cells. The compound or salt was evaluated across a 2-log concentration range. Th2 cells were cultured in X-VIVO-15 media with human AB serum and supplemented with low dose IL-2 (30 IU/mL). The antibody panel that was used is listed below. All antibodies were obtained from Biolegend.
(§4) Description of Calculation for: (1) Expression of Cytokine following Stimulation (% X Positive among CD4+ T cells), and (2) % Normalized Reduction of Cytokine Expression From Baseline in CD4+ T Cells
(§5) The expression of IL-4 and IL-13 was measured based on positive gated fractions among CD4+ Th2 cells. The number is expressed as a positive percentage, determined based on the fluorescence-minus-one (FMO) control. The max percent is 100%. The normalized reduction value uses the vehicle control (water) to normalize against using the following percent change formula. (Cmpd: compound)

IL-13 = assay: Functional Th2-blocking activity: IL-13 expression in primary human Th2 cells (intracellular flow cytometry); assay type: cell-based; conditions: for Expression of Cytokine following Stimulation (% X Positive among CD4+ T cells) IL-13: 3 days co-culture with compound, PMA/ionomycin stimulation 6 hours; for % Normalized Reduction of Cytokine Expression From Baseline in CD4+ T Cells IL-13: normalized against vehicle control (water), 3 days co-culture, PMA/ionomycin 6 hours
Text: as §1, §2, §3, §4, §5

Compound | IL-4 signaling inhibition (IL-4 receptor signaling) | % Normalized Reduction of Cytokine Expression From Baseline in CD4+ T Cells IL-4 (IL-4) | Expression of Cytokine following Stimulation (% X Positive among CD4+ T cells) IL-4 (IL-4) | Expression of Cytokine following Stimulation (% X Positive among CD4+ T cells) IL-13 (IL-13) | % Normalized Reduction of Cytokine Expression From Baseline in CD4+ T Cells IL-13 (IL-13)
Nc1c(C(=O)Nc2ccc(Cl)c(Cl)c2)c2ccccn2c1C(=O)c1cccc([N+](=O)[O-])c1 [Compound I-3, 2-amino-N-(3,4-dichlorophenyl)-3-(3-nitrobenzoyl)indolizine-1-carboxamide] | prominent IL-4 signaling inhibition | B (B represents 15% to less than 20%) | B (B represents 30% to less than 35%) | C (C represents 14% to less than 18%) | C (C represents 40% to less than 50%)
CN1c2c(nc(N)[nH]c2=O)NCC1CNc1ccc(C(=O)NC(CCC(=O)O)C(=O)O)cc1.[Ca+2] (stereo not shown) [VI-4, Levomefolate calcium, reference compound] |  | B (B represents 15% to less than 20%) | B (B represents 30% to less than 35%) | C (C represents 14% to less than 18%) | B (B represents 30% to less than 40%)
Cc1ccc(C)n1-c1ccsc1C(=O)NC1CCCC1 [VI-5, N-cyclopenty1-3-(2,5-dimethy1-1H-pyrrol-1-yl)thiophene-2-carboxamide] |  | B (B represents 15% to less than 20%) | B (B represents 30% to less than 35%) | C (C represents 14% to less than 18%) | B (B represents 30% to less than 40%)
Cn1nc(C(=O)NC(CCC(=O)O)C(=O)O)c2ccccc2c1=O (stereo not shown) [VI-6, 2-[(3-methyl-4-oxo-3,4-dihydrophthalazin-1-yl)formamido]pentanedioic acid] |  | A (A represents 0% to less than 15%) | C (C represents 35% to less than 40%) | C (C represents 14% to less than 18%) | B (B represents 30% to less than 40%)
CC1=NN(c2cccc(Cl)c2)C(=O)/C1=C\Nc1cccc2c1C(=O)c1ccccc1C2=O [VI-7, 1-({[1-(3-chlorophenyl)-3-methyl-5-oxo-1,5-dihydro-4H-pyrazol-4-ylidene]methyl}amino)anthra-9,10-quinone] |  | D (D represents 25% or greater) | B (B represents 30% to less than 35%) | C (C represents 14% to less than 18%) | B (B represents 30% to less than 40%)
Cc1ccc(C)n1-c1ccsc1C(=O)N1CCOC(c2ccccc2)C1 (stereo not shown) [VI-8, 4-[3-(2,5-dimethyl-1H-pyrrol-1-yl)thiophene-2-carbonyl]-2-phenylmorpholine] |  | A (A represents 0% to less than 15%) | C (C represents 35% to less than 40%) | C (C represents 14% to less than 18%) | C (C represents 40% to less than 50%)
O=C(c1ccc(F)cc1F)C1(O)CCN(Cc2ccc3cnccc3c2)CC1 [VI-9, 4-(2,4-difluorobenzoyl)-1-[(isoquinolin-6-yl)methyl]piperidin-4-ol] |  | D (D represents 25% or greater) | A (A represents 0% to less than 30%) | C (C represents 14% to less than 18%) | C (C represents 40% to less than 50%)
Cc1ccc(CCNC(=O)c2ccc3c(=O)n(-c4ccc(C)cc4)c(=O)[nH]c3c2)cc1 [VI-10, 3-(4-methylpheny1)-N-[2-(4-methylphenyl)ethyl]-2,4-dioxo-1,2,3,4-tetrahydroquinazoline-7-carboxamide] |  | C (C represents 20% to less than 25%) | B (B represents 30% to less than 35%) | C (C represents 14% to less than 18%) | B (B represents 30% to less than 40%)
O=C(N/N=C/c1cccc(OCc2ccccc2)c1)c1cc2ccccc2cc1O [VI-11, N′-[3-(benzyloxy)benzylidene]-3-hydroxy-2-naphthohydrazide] |  | A (A represents 0% to less than 15%) | D (D represents 40% or greater) | D (D represents 18% or greater) | A (A represents 0% to less than 30%)
COc1ccc(-c2cc(=O)c3c(O)cc(O[C@@H]4O[C@H](CO)[C@@H](O)[C@H](O)[C@H]4O)cc3o2)cc1O [VI-12, Diosmetin-7-O-beta-D-glucopyranoside] |  | D (D represents 25% or greater) | A (A represents 0% to less than 30%) | A (A represents 0% to less than 10%) | D (D represents 50% or greater)
O=C(Oc1ccc(OC(=O)c2ccc3c(c2)C(=O)OC3=O)cc1)c1ccc2c(c1)C(=O)OC2=O [VI-13, 4-(1,3-dioxo-1,3-dihydro-2-benzofuran-5-carbonyloxy)phenyl 1,3-dioxo-1,3-dihydro-2-benzofuran-5-carboxylate] |  | C (C represents 20% to less than 25%) | B (B represents 30% to less than 35%) | C (C represents 14% to less than 18%) | B (B represents 30% to less than 40%)
O=C1Cc2cc(-c3csc(Cc4ccc(F)cc4)n3)cc3c2N1CCC3 [VI-14, 8-(2-(4-fluorobenzyl)thiazol-4-yl)-5,6-dihydro-4H-pyrrolo[3,2,1-ij]quinolin-2(1H)-one] |  | C (C represents 20% to less than 25%) | B (B represents 30% to less than 35%) | B (B represents 10% to less than 14%) | D (D represents 50% or greater)
